Data from ChEMBL document CHEMBL1201862, “PubChem BioAssay data set” (2004).
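Exposure lasted 48 hours, with cells grown in 96-well plates and compounds tested at five concentrations. At the GI50, growth is halved.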 Active and inactive are the calls of the source. Rule as the data show it: active = GI50 up to about 1.1 µM and inactive = higher.

How the values were obtained:
Assay in all cases: growth of human tumour cells (NCI), 48 h
A498 = tested on: A498
A549 = tested on: A549
CCRF-CEM = tested on: CCRF-CEM
EKVX = tested on: EKVX
HL-60 = tested on: HL-60
HOP-62 = tested on: HOP-62
HOP-92 = tested on: HOP-92
HT-29 = tested on: HT-29
MOLT-4 = tested on: MOLT-4
Malme-3M = tested on: Malme-3M
NCI-H460 = tested on: NCI-H460
OVCAR-4 = tested on: OVCAR-4
SF-268 = tested on: SF-268
SK-MEL-5 = tested on: SK-MEL-5
SK-OV-3 = tested on: SK-OV-3
SN12C = tested on: SN12C
SNB-19 = tested on: SNB-19
SNB-75 = tested on: SNB-75
SR = tested on: SR
U-251 = tested on: U-251

SMILES | GI50 (A498) | GI50 (A549) | GI50 (CCRF-CEM) | GI50 (EKVX) | GI50 (HL-60) | GI50 (HOP-62) | GI50 (HOP-92) | GI50 (HT-29) | GI50 (MOLT-4) | GI50 (Malme-3M) | GI50 (NCI-H460) | GI50 (OVCAR-4) | GI50 (SF-268) | GI50 (SK-MEL-5) | GI50 (SK-OV-3) | GI50 (SN12C) | GI50 (SNB-19) | GI50 (SNB-75) | GI50 (SR) | GI50 (U-251)
COc1ccc(/C=C(\NC(=O)c2ccccc2)c2nc3ccccc3[nH]2)cc1OC | > 100 µM (inactive) | > 100 µM (inactive) | 85.9 µM (inactive) | > 100 µM (inactive) | > 100 µM (inactive) | > 100 µM (inactive) | > 100 µM (inactive) | > 100 µM (inactive) | 79.1 µM (inactive) | > 100 µM (inactive) | > 100 µM (inactive) | > 100 µM (inactive) | > 100 µM (inactive) | > 100 µM (inactive) | > 100 µM (inactive) | > 100 µM (inactive) | > 100 µM (inactive) | > 100 µM (inactive) | > 100 µM (inactive) | > 100 µM (inactive)
Nn1c(S)nnc1C12CC3CC(CC(C3)C1)C2 | > 100 µM (inactive) | > 100 µM (inactive) | > 100 µM (inactive) | > 100 µM (inactive) | > 100 µM (inactive) | > 100 µM (inactive) | > 100 µM (inactive) | > 100 µM (inactive) | > 100 µM (inactive) | > 100 µM (inactive) | > 100 µM (inactive) | > 100 µM (inactive) | > 100 µM (inactive) | > 100 µM (inactive) | > 100 µM (inactive) | > 100 µM (inactive) | > 100 µM (inactive) | > 100 µM (inactive) | > 100 µM (inactive) | > 100 µM (inactive)
OC(c1cc(C23CC4CC(CC(C4)C2)C3)nc2c(Cl)cc(Cl)cc12)C1CCCCN1 (stereo not drawn) | 1.7 µM (inactive) | 1.82 µM (inactive) | 0.743 µM (active) | 1.73 µM (inactive) | 2.11 µM (inactive) | 1.53 µM (inactive) | 2.05 µM (inactive) | 1.58 µM (inactive) | 0.608 µM (active) | 1.81 µM (inactive) | 1.61 µM (inactive) | 1.69 µM (inactive) | 1.79 µM (inactive) | 2.63 µM (inactive) | 1.77 µM (inactive) | 1.62 µM (inactive) | 1.6 µM (inactive) | 1.73 µM (inactive) | 0.705 µM (active) | 1.51 µM (inactive)
O=C1OC2C(O)COC2(O)C1(O)Cc1c[nH]c2ccccc12 (stereo not drawn) | > 100 µM (inactive) | > 100 µM (inactive) | > 100 µM (inactive) | > 100 µM (inactive) | > 100 µM (inactive) | > 100 µM (inactive) | > 100 µM (inactive) | > 100 µM (inactive) | > 100 µM (inactive) | > 100 µM (inactive) | > 100 µM (inactive) | > 100 µM (inactive) | > 100 µM (inactive) | > 100 µM (inactive) | > 100 µM (inactive) | > 100 µM (inactive) | > 100 µM (inactive) | > 100 µM (inactive) | > 100 µM (inactive) | > 100 µM (inactive)
Clc1cccc(Cl)c1C1SCc2nc3ccccc3n21 (stereo not drawn) | > 100 µM (inactive) | > 100 µM (inactive) | 54.5 µM (inactive) | 78.3 µM (inactive) | 3.97 µM (inactive) | > 100 µM (inactive) | 9.48 µM (inactive) | 43.9 µM (inactive) | 19.1 µM (inactive) | > 100 µM (inactive) | 48.6 µM (inactive) | 83.9 µM (inactive) | > 100 µM (inactive) | 9.04 µM (inactive) | > 100 µM (inactive) | > 100 µM (inactive) | > 100 µM (inactive) | 88.3 µM (inactive) | 5.38 µM (inactive) | > 100 µM (inactive)
CC1(C)O[C@@H](CCl)C[C@H](C#N)O1 | > 100 µM (inactive) | > 100 µM (inactive) | > 100 µM (inactive) | > 100 µM (inactive) | > 100 µM (inactive) | > 100 µM (inactive) | > 100 µM (inactive) | > 100 µM (inactive) | > 100 µM (inactive) | > 100 µM (inactive) | > 100 µM (inactive) | > 100 µM (inactive) | > 100 µM (inactive) | > 100 µM (inactive) | > 100 µM (inactive) | > 100 µM (inactive) | > 100 µM (inactive) | > 100 µM (inactive) | > 100 µM (inactive) | > 100 µM (inactive)
O=C(NCCCNCCCCNCCCNC(=O)c1cc(-c2ccccc2)nc2ccccc12)c1cc(-c2ccccc2)nc2ccccc12 | 20.7 µM (inactive) | 2.12 µM (inactive) | 1.88 µM (inactive) | 5.18 µM (inactive) | 1.79 µM (inactive) | 2.36 µM (inactive) | 1.48 µM (inactive) | 1.91 µM (inactive) | 1.9 µM (inactive) | 1.95 µM (inactive) | 2.32 µM (inactive) | 2.64 µM (inactive) | 1.71 µM (inactive) | 2.61 µM (inactive) | 2.27 µM (inactive) | 2.23 µM (inactive) | 1.67 µM (inactive) | 1.85 µM (inactive) | 1.97 µM (inactive) | 1.66 µM (inactive)
CCN(CC)CC1CCCCN1CC(=O)N1c2cc(Cl)ccc2NC(=O)CC1C (stereo not drawn) | > 100 µM (inactive) | > 100 µM (inactive) | > 100 µM (inactive) | > 100 µM (inactive) | > 100 µM (inactive) | > 100 µM (inactive) | > 100 µM (inactive) |  | > 100 µM (inactive) | > 100 µM (inactive) | > 100 µM (inactive) | > 100 µM (inactive) | > 100 µM (inactive) | > 100 µM (inactive) | 0.0849 µM (active) | > 100 µM (inactive) | > 100 µM (inactive) | > 100 µM (inactive) | > 100 µM (inactive) | > 100 µM (inactive)
CC1=NOC(=O)/C1=C/c1cccc2ccccc12 | > 100 µM (inactive) | > 100 µM (inactive) | > 100 µM (inactive) | > 100 µM (inactive) | > 100 µM (inactive) | > 100 µM (inactive) | > 100 µM (inactive) | > 100 µM (inactive) | > 100 µM (inactive) | > 100 µM (inactive) | > 100 µM (inactive) | > 100 µM (inactive) | > 100 µM (inactive) | > 100 µM (inactive) | > 100 µM (inactive) | > 100 µM (inactive) | > 100 µM (inactive) | > 100 µM (inactive) | > 100 µM (inactive) | > 100 µM (inactive)
Nc1nc(SCCC/C=C/I)nc2c1ncn2C1OC(COP(=O)(O)O)C(O)C1O (stereo not drawn) | > 100 µM (inactive) | > 100 µM (inactive) | > 100 µM (inactive) | > 100 µM (inactive) | > 100 µM (inactive) | > 100 µM (inactive) | > 100 µM (inactive) | > 100 µM (inactive) | > 100 µM (inactive) | > 100 µM (inactive) | > 100 µM (inactive) | > 100 µM (inactive) | > 100 µM (inactive) | > 100 µM (inactive) | > 100 µM (inactive) | > 100 µM (inactive) | > 100 µM (inactive) | > 100 µM (inactive) | > 100 µM (inactive) | > 100 µM (inactive)
Cc1ccc(-c2nnc(SCC(=O)O)[nH]2)cc1 | > 100 µM (inactive) | > 100 µM (inactive) | > 100 µM (inactive) | > 100 µM (inactive) | > 100 µM (inactive) | > 100 µM (inactive) | > 100 µM (inactive) | > 100 µM (inactive) | > 100 µM (inactive) | > 100 µM (inactive) | > 100 µM (inactive) | > 100 µM (inactive) | > 100 µM (inactive) | > 100 µM (inactive) | > 100 µM (inactive) | > 100 µM (inactive) | > 100 µM (inactive) | 78.5 µM (inactive) | > 100 µM (inactive) | > 100 µM (inactive)
O=C(O)Cc1ccccc1 [PHENYLACETIC ACID] | > 100 µM (inactive) | > 100 µM (inactive) | > 100 µM (inactive) | > 100 µM (inactive) | > 100 µM (inactive) | > 100 µM (inactive) | 11.4 µM (inactive) | > 100 µM (inactive) | > 100 µM (inactive) | > 100 µM (inactive) | > 100 µM (inactive) | > 100 µM (inactive) | > 100 µM (inactive) | > 100 µM (inactive) | > 100 µM (inactive) | > 100 µM (inactive) | > 100 µM (inactive) | > 100 µM (inactive) | > 1000 µM (inactive) | > 100 µM (inactive)
COC(=O)/C(C#N)=C1\NC(=O)c2ccccc21 | > 100 µM (inactive) | > 100 µM (inactive) | > 100 µM (inactive) | > 100 µM (inactive) | > 100 µM (inactive) | > 100 µM (inactive) | > 100 µM (inactive) | > 100 µM (inactive) | > 100 µM (inactive) | > 100 µM (inactive) | > 100 µM (inactive) | > 100 µM (inactive) | > 100 µM (inactive) | > 100 µM (inactive) | > 100 µM (inactive) | > 100 µM (inactive) | > 100 µM (inactive) | 2.4 µM (inactive) | > 100 µM (inactive) | > 100 µM (inactive)
CC(O[Si](c1ccccc1)(c1ccccc1)C(C)(C)C)[C@H](NC(=O)OC(C)(C)C)C(=O)O (stereo partly drawn) | 82.6 µM (inactive) | 30.4 µM (inactive) | 10.2 µM (inactive) | 33.5 µM (inactive) | 27.3 µM (inactive) | 49.8 µM (inactive) | 29.9 µM (inactive) | 32.2 µM (inactive) | 18.1 µM (inactive) | 50 µM (inactive) | 55.6 µM (inactive) | 26.4 µM (inactive) | 57.3 µM (inactive) | 21.6 µM (inactive) | 30.4 µM (inactive) |  | 36.1 µM (inactive) | 43.7 µM (inactive) | 28.2 µM (inactive) | 33.1 µM (inactive)
